Read-outs that look alike come from different tables or passages of the source.
Biological target: T1, human Bradykinin B1 receptor (Homo sapiens, UniProt P46663)
T1 construct: host or cells: CHO-K1
T1 sequence (P46663 1-353): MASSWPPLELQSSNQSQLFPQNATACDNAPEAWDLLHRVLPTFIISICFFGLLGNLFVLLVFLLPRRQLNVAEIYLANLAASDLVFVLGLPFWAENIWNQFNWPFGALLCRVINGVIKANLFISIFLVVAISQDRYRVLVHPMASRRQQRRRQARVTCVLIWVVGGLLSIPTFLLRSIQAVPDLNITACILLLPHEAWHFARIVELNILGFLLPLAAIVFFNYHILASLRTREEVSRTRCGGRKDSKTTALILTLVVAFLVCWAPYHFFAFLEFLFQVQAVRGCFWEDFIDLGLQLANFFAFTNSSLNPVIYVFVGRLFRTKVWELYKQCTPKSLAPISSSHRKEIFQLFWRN
Assay: Calcium flux Assay (FLIPR) with recombinant CHO-K1 cells expressing human Bradykinin B1 receptor, in presence (hB1 IC50) or absence (hB1 free IC50) of 0.1% BSA
Type: cell-based

[1] = in absence of 0.1% BSA, read-out: hB1 free IC50
[2] = in presence of 0.1% BSA, read-out: hB1 IC50

IC50 [1] [nM]	IC50 [2] [nM]	SMILES
436	521	CS(=O)(=O)c1cncc(-c2ccc(NC(=O)C3(c4cccc(Cl)c4)CC3)cc2-c2nnn[nH]2)c1 [Example 319, 1-(3-Chlorophenyl)-N-{4-[5-(methylsulfonyl)pyridin-3-yl]-3-(1H-tetrazol-5-yl)phenyl}cyclopro-panecarboxa-mide]
–	208	COc1cc(-c2ccc(NC(=O)C3(c4cccc(Cl)c4)CC3)cc2-c2nnn[nH]2)ccn1 [Example 320, 1-(3-Chlorophenyl)-N-[4-(2-methoxypyridin-4-yl)-3-(1H-tetrazol-5-yl)phenyl]cyclopro-panecarboxa-mide]
–	152	O=C(Nc1ccc(-c2cnc3ccoc3c2)c(-c2nnn[nH]2)c1)C1(c2cccc(Cl)c2)CC1 [Example 321, 1-(3-chlorophenyl)-N-[4-(furo[3,2-b]pyridin-6-yl)-3-(1H-tetrazol-5-yl)phenyl]cyclopro-panecarboxa-mide]
–	238	O=C(Nc1ccc(-c2ccc(N3CCOCC3)cc2)c(-c2nnn[nH]2)c1)C1(c2cccc(Cl)c2)CC1 [Example 322, 1-(3-chlorophenyl)-N-[4′-(morpholin-4-yl)-2-(1H-tetrazol-5-yl)biphenyl-4-yl]cyclopropane carboxamide]
–	355	N#Cc1ccc(-c2ccc(NC(=O)C3(c4cccc(Cl)c4)CC3)cc2-c2nnn[nH]2)cn1 [Example 323, 1-(3-chlorophenyl)-N-[4-(6-cyanopyridin-3-yl)-3-(1H-tetrazol-5-yl)phenyl]cyclopro-panecarboxa-mide]
–	1740	N#Cc1cc(-c2ccc(NC(=O)C3(c4cccc(Cl)c4)CC3)cc2-c2nnn[nH]2)ccc1Cl [Example 325, N-[4′-chloro-3′-cyano-2-(1H-tetrazol-5-yl)biphenyl-4-yl]-1-(3-chlorophenyl)cy-clopropanecarbox-amide]
141	158	CN1CCN(c2ccc(-c3ccc(NC(=O)C4(c5cccc(Cl)c5)CC4)cc3-c3nnn[nH]3)cc2)CC1 [Example 330, 1-(3-chlorophenyl)-N-[4′-(4-methylpiperazin-1-yl)-2-(1H-tetrazol-5-yl)biphenyl-4-yl]cyclopropane carboxamide]
162	206	CS(=O)(=O)Nc1ccc(-c2ccc(NC(=O)C3(c4cccc(Cl)c4)CC3)cc2-c2nnn[nH]2)cc1 [Example 331, 1-(3-chloropehnyl)-N-{4′-[(methylsulfonyl)amino]-2-(1H-tetrazol-5-yl)biphenyl-4-yl}cyclopropane carboxamide]
191	274	O=C(Nc1ccc(-c2cc3c(Cl)nccc3o2)c(-c2nnn[nH]2)c1)C1(c2cccc(Cl)c2)CC1 [Example 332, N-[4-(4-chlorofuro[3,2-c]pyridin-2-yl)-3-(1H-tetrazol-5-yl)phenyl]-1-(3-chlorophenyl)cy-clopropanecarbox-amide]
–	420	COc1ncc(-c2ccc(NC(=O)C3(c4cccc(Cl)c4)CC3)cc2-c2nnn[nH]2)cn1 [Example 333, 1-(3-chlorophenyl)-N-[4-(2-methoxypyrimidin-5-yl)-3-(1H-tetrazol-5-yl)phenyl]cyclopro-panecarboxa-mide]
99.8	936	N#Cc1ncc(-c2ccc(NC(=O)C3(c4cccc(Cl)c4)CC3)cc2-c2nnn[nH]2)cn1 [Example 334, 1-(3-chlorophenyl)-N-[4-(2-cyanopyrimidin-5-yl)-3-(1H-tetrazol-5-yl)phenyl]cyclopro-panecarboxa-mide]
298	517	O=C(Nc1ccc(-c2cncc(F)c2)c(-c2nnn[nH]2)c1)C1(c2cccc(Cl)c2)CC1 [Example 335, 1-(3-chlorophenyl)-N-[4-(5-fluoropyridin-3-yl)-3-(1H-tetrazol-5-yl)phenyl]cyclopro-panecarboxa-mide]
–	1320	N#Cc1cncc(-c2ccc(NC(=O)C3(c4cccc(Cl)c4)CC3)cc2-c2nnn[nH]2)c1 [Example 336, 1-(3-chlorophenyl)-N-[4-(5-cyanopyridin-3-yl)-3-(1H-tetrazol-5-yl)phenyl]cyclopro-panecarboxa-mide]
–	2030	N#Cc1cc(F)cc(-c2ccc(NC(=O)C3(c4cccc(Cl)c4)CC3)cc2-c2nnn[nH]2)c1 [Example 337, 1-(3-chlorophenyl)-N-[3′-cyano-5′-fluoro-2-(1H-tetrazol-5-yl)biphenyl-4-yl]cyclopropane carboxamide]
23.7	46.7	Cn1ncc2cc(-c3ccc(NC(=O)C4(c5cccc(Cl)c5)CC4)cc3-c3nnn[nH]3)ccc21 [Example 339, 1-(3-chlorophenyl)-N-[4-(1-methyl-1H-indazol-5-yl)-3-(1H-tetrazol-5-yll)phenyl]cyclopro-panecarboxa-mide]
87.3	115	O=C(Nc1ccc(-c2ccc(Cl)nc2)c(-c2nnn[nH]2)c1)C1(c2cccc(Cl)c2)CC1 [Example 341, 1-(3-chlorophenyl)-N-[4-(6-chloropyridin-3-yl)-3-(1H-tetrazol-5-yl)phenyl]cyclopro-panecarboxa-mide]
–	1770	CCOc1ccc(-c2cc(F)c(NC(=O)C3(c4cccc(Cl)c4)CC3)cc2-c2nnn[nH]2)cn1 [Example 342, 1-(3-chlorophenyl)-N-[4-(6-ethoxypyridin-3-yl)-2-fluoro-5-(1H-tetrazol-5-yl)phenyl]cyclopro-panecarboxa-mide]
28.5	–	O=C(Nc1ccc(-n2cc(C(F)(F)F)cn2)c(-c2nnn[nH]2)c1)C1(c2ccc(C(F)(F)F)cc2F)CC1 [Example 345, 1-[2-Fluoro-4-(trifluoromethyl)phenyl]-N-{3-(1H-tetrazol-5-yl)-4-[4-(trifluoromethyl)-1H-pyrazol-1-yl]phenyl}cyclopropanecarboxamide]
65.9	–	O=C(Nc1ccc(-n2cc(C(F)F)cn2)c(-c2nnn[nH]2)c1)C1(c2ccc(C(F)(F)F)cc2F)CC1 [Example 346, N-{4-[4-(Difluoromethyl)-1H-pyrazol-1-yl]-3-(1H-tetrazol-5-yl)phenyl}-1-[2-fluoro-4-(trifluoromethyl)phenyl]cyclopro-panecarboxamide]
96.6	–	O=C(Nc1ccc(-n2cnc(C(F)(F)F)c2)c(-c2nnn[nH]2)c1)C1(c2ccc(C(F)(F)F)cc2F)CC1 [Example 347, 1-[2-Fluoro-4-(trifluoromethyl)phenyl]-N-{3-(1H-tetrazol-5-yl)-4-[4-(trifluoromethyl)-1H-imidazol-1-yl]phenyl}cyclopro-panecarboxa-mide]
122	–	O=C(Nc1ccc(-n2ccc(C(F)(F)F)n2)c(-c2nnn[nH]2)c1)C1(c2ccc(C(F)(F)F)cc2F)CC1 [Example 348, 1-[2-Fluoro-4-(trifluoromethyl)phenyl]-N-{3-(1H-tetrazol-5-yl)-4-[3-(trifluoromethyl)-1H-pyrazol-1-yl]phenyl}cyclopro-panecarboxa-mide]
590	–	O=C(Nc1ccc(-n2cc(C(F)(F)F)cn2)c(-c2nnn[nH]2)c1)C1(c2cccc(Cl)c2)CC1 [Example 349, 1-(3-Chlorophenyl)-N-{3-(1H-tetrazol-5-yl)-4-[4-(trifluoromethyl)-1H-pyrazol-1-yl]phenyl}cyclopro-panecarboxa-mide]
804	–	O=C(Nc1ccc(-n2cc(C(F)F)cn2)c(-c2nnn[nH]2)c1)C1(c2cccc(Cl)c2)CC1 [Example 350, 1-(3-Chlorophenyl)-N-{4-[4-(difluoromethyl)-1H-pyrazol-1-yl]-3-(1H-tetrazol-5-yl)phenyl}cyclopro-panecarboxa-mide]
1060	–	O=C(Nc1ccc(-n2cc(C(F)(F)F)cn2)c(-c2nnn[nH]2)c1)C1(c2ccc(F)c(F)c2)CC1 [Example 351, 1-(3,4-Difluorophenyl)-N-{3-(1H-tetrazol-5-yl)-4-[4-(trifluoromethyl)-1H-pyrazol-1-yl]phenyl}cyclopro-panecarboxa-mide]
1200	–	O=C(Nc1ccc(-n2cnc(C(F)(F)F)c2)c(-c2nnn[nH]2)c1)C1(c2cccc(Cl)c2)CC1 [Example 352, 1-(3-Chlorophenyl)-N-{3-(1H-tetrazol-5-yl)-4-[4-(trifluoromethyl)-1H-imidazol-1-yl]phenyl}cyclopro-panecarboxa-mide]
1210	–	O=C(Nc1ccc(-n2cc(C(F)F)cn2)c(-c2nnn[nH]2)c1)C1(c2ccc(F)c(F)c2)CC1 [Example 353, N-{4-[4-(Difluoromethyl)-1H-pyrazol-1-yl]-3-(1H-tetrazol-5-yl)phenyl}-1-(3,4-difluorophenyl)cy-clopropanecar-boxamide]
1880	–	O=C(Nc1ccc(-n2ccc(C(F)(F)F)n2)c(-c2nnn[nH]2)c1)C1(c2cccc(Cl)c2)CC1 [Example 354, 1-(3-Chlorophenyl)-N-{3-(1H-tetrazol-5-yl)-4-[3-(trifluoromethyl)-1H-pyrazol-1-yl]phenyl}cyclopro-panecarboxa-mide]
1880	–	O=C(Nc1ccc(-n2ccc(C(F)(F)F)n2)c(-c2nnn[nH]2)c1)C1(c2ccc(F)c(F)c2)CC1 [Example 355, 1-(3,4-Difluorophenyl)-N-{3-(1H-tetrazol-5-yl)-4-[3-(trifluoromethyl)-1H-pyrazol-1-yl]phenyl}cyclopro-panecarboxa-mide]
2350	–	O=C(Nc1ccc(-n2cnc(C(F)(F)F)c2)c(-c2nnn[nH]2)c1)C1(c2ccc(F)c(F)c2)CC1 [Example 356, 1-(3,4-Difluorophenyl)-N-{3-(1H-tetrazol-5-yl)-4-[4-(trifluoromethyl)-1H-imidazol-1-yl]phenyl}cyclopro-panecarboxa-mide]
44.8	–	O=C(Nc1ccc(-n2cnc(C3CCC3)n2)c(-c2nnn[nH]2)c1)C1(c2cccc(Cl)c2)CC1 [Example 357, 1-(3-chlorophenyl)-N-[4-(3-cyclobutyl-1H-1,2,4-triazol-1-yl)-3-(1H-tetrazol-5-yl)phenyl]cyclopro-panecarboxa-mide]
